{
  "source": "patent US10022360B2",
  "about": "“Polymeric nanoparticles and methods of making and using same” (priority 2014, dated 2018)",
  "key": {"in vivo": {"experiment": "in vivo", "details": "mouse", "protocol": "NPs from Example 4 were prepared on a larger scale for MTD studies."}, "[1]": {"format": "in vivo", "details": "BT-474 xenografts in SCID mice, FIG. 15"}, "[2]": {"experiment": "Blood glucose after acute treatment, non-tumor bearing SCID mice", "format": "in vivo", "details": "FIG. 10"}},
  "data": [
    {"smiles": "NC1(c2ccc(-c3nc4ccn5c(=O)[nH]nc5c4cc3-c3ccccc3)cc2)CCC1", "note": "[COMPOUND A, 8-[4-(1-amino-cyclobutyl)phenyl]-9-phenyl-2H-[1,2,4]-triazolo-[3,4-f][1,6]-naphthyridin-3-one]", "values": [
      {"measurement": "MTD", "setting": "in vivo", "result": 480, "unit": "mg/kg"},
      {"measurement": "MTD dosing / toxicity (percent survival)", "setting": "[1]", "result": "exhibited toxicity"},
      {"measurement": "hyperglycemia following acute treatment", "setting": "[2]", "result": "display hyperglycemia"}
    ]}
  ]
}
